From patent publication US20130011479A1, “DOUBLE-LAYER PHARMACEUTICAL FORMULATIONS CONTAINING OPIOID AGONISTS AND ANTAGONISTS” (L. MOLTENI & C. DEI FRATELLI ALITTI SOCIETA' DI ESERCIZIO …, priority 2010, published 2013)

Legend:
[1] = Intrathecal screening of patients treated with opioids: adverse events / side-effects monitored at several time points; assay type: in vivo; design: key to vertigo / vomiting / pruritus / nausea / numbness / side-effects (grade printed beside morphine) / drowsiness / constipation / loss of appetite / urinary retention / sweating: (0) = none; (1) = mild; (2) = moderate; (3) = intense; (4) = severe
Experimental: (§1) A dose of opioids was administered with or without naltrexone and the adverse events or side-effects and anti-nociceptive effects were monitored at several time points.
(§2) In particular, patients with chronic (non-oncological) spinal pain and oncological patients in the non-terminal phase with evidence of side effects after minimum doses of opioids were monitored.

[2] = Intrathecal screening of patients treated with opioids: anti-nociceptive effects (Efficacy) monitored at several time points; assay type: in vivo
Experimental: Patients being treated with opioids underwent intrathecal screening, in which the evidence of side effects is extremely significant.
as §1, §2

[3] = Algoneurodystrophy, 2 h, without naltrexone
[4] = Back pain, 1 h, without naltrexone
[5] = Back pain, 2 h, without naltrexone
[6] = Back pain, 4 h, without naltrexone
[7] = Back pain, 24 h, without naltrexone
[8] = Cancer of the pancreas, without naltrexone
[9] = Diabetes mellitus type II, without naltrexone
[10] = Lumbago, 4 h, without naltrexone
[11] = Lumbago, 6 h, without naltrexone
[12] = Lumbago, 8 h, without naltrexone
[13] = Lumboischialgia in diabetic patients (VAS 6-7), without naltrexone
[14] = Lumboischialgia, without naltrexone
[15] = Lumbosacral spondylitis without myelopathy, 2 h-4 h, without naltrexone
[16] = Multiple sclerosis, without naltrexone
[17] = Nonspecific coccyx disorders, 6 h, without naltrexone
[18] = Persistent pain syndrome, without naltrexone
[19] = Right lumboischialgia, without naltrexone
[20] = Secondary bone and marrow malignancies (patient at r66), without naltrexone
[21] = Secondary bone and marrow malignancies (patient at r76), without naltrexone
[22] = Secondary malignancies of bone and marrow, without naltrexone
[23] = Stenosis of the lumbar spinal canal, without naltrexone
[24] = Persistent pain syndrome, with naltrexone
[25] = Right lumboischialgia, with naltrexone
[26] = Right lumboischialgia, with naltrexone, first mention in the cell
[27] = Right lumboischialgia, with naltrexone, second mention in the cell
[28] = Secondary bone and marrow malignancies (patient at r66), with naltrexone
[29] = Spinal pain, 4 h, with naltrexone
[30] = Spinal pain, 6 h, with naltrexone

SMILES: CN1CC[C@]23c4c5ccc(O)c4O[C@H]2[C@@H](O)C=C[C@H]3[C@H]1C5 [morphine]
- pruritus ([1]; Algoneurodystrophy, 6-8 h, without naltrexone): 6-8 h: pruritus (3), urinary
- pruritus ([1]; Algoneurodystrophy, 1 h, without naltrexone): 1 h: pruritus (3)
- pruritus [1, 3]: 2 h: pruritus (3)
- vertigo ([1]; Back pain, 30 min, without naltrexone): 30 min: vertigo (1)
- nausea [1, 4]: 1 h: vertigo (1), nausea (1)
- vertigo [1, 4]: 1 h: vertigo (1), nausea (1)
- vertigo [1, 5]: 2 h: vertigo (2), vomiting (2)
- vomiting [1, 5]: 2 h: vertigo (2), vomiting (2)
- nausea [1, 6]: 3
- vertigo [1, 6]: 2
- vomiting [1, 6]: vomiting (2)
- pruritus ([1]; Back pain, 8 h, without naltrexone): 8 h: pruritus (2)
- nausea [1, 7]: 24 h: nausea (2), vertigo (2)
- vertigo [1, 7]: 24 h: nausea (2), vertigo (2)
- constipation [1, 8]: constipation
- nausea [1, 8]: 3
- nausea [1, 9]: 3
- pruritus [1, 9]: 4
- drowsiness ([1]; Lumbago, 1 h, without naltrexone): 1 h: drowsiness (1)
- nausea [1, 10]: 4 h: nausea (2), vomiting (2)
- vomiting [1, 10]: 4 h: nausea (2), vomiting (2)
- nausea [1, 11]: 3
- pruritus [1, 11]: 6 h: pruritus (3), urinary reten-
- vomiting [1, 11]: 2
- nausea [1, 12]: 3
- pruritus [1, 12]: pruritus (3), urinary retention (3)
- vomiting [1, 12]: 2
- constipation [1, 13]: constipation
- drowsiness [1, 13]: drowsiness
- nausea [1, 13]: nausea
- oedema [1, 13]: moderate
- pruritus [1, 13]: pruritus
- nausea [1, 14]: nausea (2),
- pruritus [1, 14]: 2
- sweating [1, 14]: sweating (2), vertigo (2),
- vertigo [1, 14]: sweating (2), vertigo (2),
- vomiting [1, 14]: 3
- nausea [1, 15]: nausea
- vomiting [1, 15]: vomiting
- vomiting ([1]; Lumbosacral spondylitis without myelopathy, 6 h-8 h, without naltrexone): 6 h-8 h: vomiting
- constipation [1, 16]: constipation
- loss of appetite [1, 16]: loss of appetite
- nausea [1, 16]: nausea
- vertigo [1, 16]: vertigo
- vomiting ([1]; Nonspecific coccyx disorders, 4 h, without naltrexone): 4 h: recurrent vomiting
- nausea [1, 17]: 6 h: vomiting (3), nausea (3)
- vomiting [1, 17]: 6 h: vomiting (3), nausea (3)
- asthenia ([1]; Nonspecific coccyx disorders, 8 h, without naltrexone): 8 h: asthenia
- side-effects (grade printed beside morphine) ([1]; Nonspecific coccyx disorders, time not given, without naltrexone): morphine (0)
- nausea [1, 18]: nausea
- vertigo [1, 18]: vertigo
- vomiting [1, 18]: 4
- nausea [1, 19]: 2
- pruritus [1, 19]: 4
- vomiting [1, 19]: ing (2), urinary retention (2)
- constipation [1, 20]: constipation (3), drowsiness (3),
- drowsiness [1, 20]: constipation (3), drowsiness (3),
- constipation [1, 21]: tion (1)
- loss of appetite [1, 21]: nausea (4), loss of appetite (4),
- nausea [1, 21]: nausea (4), loss of appetite (4),
- vertigo [1, 21]: 4
- vomiting [1, 21]: vomiting
- constipation [1, 22]: constipation
- pruritus [1, 22]: pruritus (3)
- headache [1, 23]: headache
- nausea [1, 23]: 4
- pruritus [1, 23]: 1
- sweating [1, 23]: sweating
- vomiting [1, 23]: vomiting
- Efficacy [2, 3]: 2 h: 30-40%
- Efficacy ([2]; Algoneurodystrophy, 8 h, without naltrexone): 8 h: 80%
- Efficacy ([2]; Algoneurodystrophy, 14 h, without naltrexone): 14 h: 70%
- Efficacy ([2]; Lumbosacral spondylitis without myelopathy, 2 h-24 h, without naltrexone): 2 h-24 h: 80%
- Efficacy ([2]; Nonspecific coccyx disorders, without naltrexone): Efficacy <30%
- Efficacy [2, 21]: Efficacy: 100%

SMILES: O=C1CC[C@@]2(O)[C@H]3Cc4ccc(O)c5c4[C@@]2(CCN3CC2CC2)[C@H]1O5 [naltrexone]
- chest pain ([1]; Back pain, h 17.30, with naltrexone): chest pain
- tachycardia ([1]; Back pain, h 18.30, with naltrexone): h 18.30: tachycardia
- benefit ([1]; Diabetes mellitus type II, with naltrexone): benefit 100%
- drowsiness ([1]; Lumbago, 1 h, with naltrexone): 1 h: drowsiness (1)
- pruritus ([1]; Lumbago, 2 h, with naltrexone): 2 h: pruritus (2)
- drowsiness ([1]; Lumbago, 4 h, with naltrexone): 4 h: drowsiness (2), pruritus (2)
- pruritus ([1]; Lumbago, 4 h, with naltrexone): 4 h: drowsiness (2), pruritus (2)
- drowsiness ([1]; Lumbago, 6 h, with naltrexone): 1
- pruritus ([1]; Lumbago, 6 h, with naltrexone): 2
- constipation [1, 24]: constipation
- drowsiness [1, 24]: drowsiness
- nausea [1, 24]: nausea
- sweating [1, 24]: sweating
- vertigo [1, 24]: vertigo
- vomiting [1, 24]: vomiting
- side-effects ([1]; Persistent spinal pain syndrome of uncertain aetiology, with naltrexone): none
- nausea [1, 25]: 2
- vomiting [1, 25]: vomiting (2), urinary
- pruritus [1, 26]: 4
- urinary retention [1, 26]: 2
- pruritus [1, 27]: 1
- urinary retention [1, 27]: urinary retention (1)
- constipation [1, 28]: constipation (3), drowsiness
- drowsiness [1, 28]: 3
- urinary retention [1, 28]: short-lived
- pruritus improved by ([1]; Secondary malignancies of bone and marrow, with naltrexone): 90%
- numbness [1, 29]: 4 h: pruritus (1), numbness (1)
- pruritus [1, 29]: 4 h: pruritus (1), numbness (1)
- nausea [1, 30]: nausea (1)
- numbness [1, 30]: 6 h: pruritus (1), numbness (1),
- pruritus [1, 30]: 6 h: pruritus (1), numbness (1),
- nausea ([1]; Spinal pain, 8 h, with naltrexone): 8 h: nausea (1)
- nausea ([1]; Stenosis of the lumbar spinal canal, with naltrexone): nausea (1)
- Efficacy ([2]; Lumbago, 1 h, with naltrexone): 1 h: 30-50%
- Efficacy ([2]; Lumbago, 4 h-8 h, with naltrexone): 4 h-8 h: >50%
- Efficacy ([2]; Spinal pain, 1 h-8 h, at rest, with naltrexone): 1 h-8 h: at rest 100%, under
- Efficacy ([2]; Spinal pain, 1 h-8 h, under strain, with naltrexone): strain 70%
